According to ChEMBL document CHEMBL1148316, “Discovery of 5-(4-chlorophenyl)-1-(2,4-dichlorophenyl)-3-hexyl-1h-1,2,4-triazole, a novel in vivo cannabinoid antagonist containing a 1,2,4-triazole motif” (J Med Chem, 2004):
Calls of active or inactive are those of the source. The calls are words filed in the database; no cut-off is given here.

Assays:
Format in all cases: functional
[1] = Effect on cannabinoid tetrad (nociception, temperature, spontaneous motility and catalepsy) of behavioral test; inhibit spontaneous motility
[2] = Effect on cannabinoid tetrad (nociception, temperature, spontaneous motility and catalepsy) of behavioral test; induce catalepsy
[3] = Effect on cannabinoid tetrad (nociception, temperature, spontaneous motility and catalepsy) of behavioral test; induce hypothermia
[4] = Effect on cannabinoid tetrad (nociception, temperature, spontaneous motility and catalepsy) of behavioral test; induce antinociception
[5] = Effect on cannabinoid tetrad (nociception, temperature, spontaneous motility and catalepsy) of behavioral test; no significant effect
Mus musculus = organism: Mus musculus; test: Effect on electrically evoked contractions in mouse vas deferens at 10E-8 to 10E-6 M concentration; No effect
Cavia porcellus = organism: Cavia porcellus; test: Effect on electrically evoked contractions in […] plexus longitudinal muscles of guinea pig at 10E-8 to 2.4E-6 M; No effect; conditions: Muscle tissue

Structure (SMILES): Cc1c(C(=O)c2cccc3ccccc23)c2cccc3c2n1[C@H](CN1CCOCC1)CO3
- Activity [1]: Active
- Activity [2]: Active
- Activity [3]: Active
- Activity [4]: Active

Structure (SMILES): CCCCCCc1nc(-c2ccc(Cl)cc2)n(-c2ccc(Cl)cc2Cl)n1
- Activity [5]: inactive
- Activity (Mus musculus): inactive
- Activity (Cavia porcellus): inactive

Structure (SMILES): CCCCCCCc1nc(-c2ccccc2)n(-c2ccccc2)n1
- Activity (Mus musculus): inactive
- Activity (Cavia porcellus): inactive

Structure (SMILES): CCc1nc(-c2ccc(Cl)cc2)n(-c2ccc(Cl)cc2)n1
- Activity (Mus musculus): inactive
- Activity (Cavia porcellus): inactive

Structure (SMILES): CCCCCCc1nc(-c2ccc(Cl)cc2)n(-c2ccc(Cl)cc2)n1
- Activity (Mus musculus): inactive
- Activity (Cavia porcellus): inactive

Structure (SMILES): CCc1nc(-c2ccc(Cl)cc2)n(-c2ccccc2)n1
- Activity (Mus musculus): inactive
- Activity (Cavia porcellus): inactive

Structure (SMILES): CCCCCCc1nc(-c2ccc(Cl)cc2Cl)n(-c2ccc(Cl)cc2Cl)n1
- Activity (Mus musculus): inactive
- Activity (Cavia porcellus): inactive
